Assay results from patent US20080171792A1, “Use of highly concentrated formulations of 4-phenylbutyrate for treatment of certain disorders” (priority 2006, published 2008).

Key:
[1] = Storage of the concentrated aqueous solution at low temperature (freezing / precipitation); assay type: physicochemical
Procedure: Therefore, due to likely micelle formation of sodium 4-phenylbutyrate (which we term the self-associated polymeric form), the high concentration of about 500 mg/mL can be achieved in solution. […] This novel invention thus provides a dosage form better able to help the patients presently administered with a high volume dosage of sodium 4-phenylbutyrate. This invention is not intended to be limited by this discussion of micellar phases, or the presence or absence of other high concentration phases (such as sponge or L3, worm-like micelles, sheets and other laminar phases) that may be formed depending on the particular processing conditions and/or materials used. In the follow description the term “solution” is used without regard to whether a micellar phase is present. […] The mixture was cooled to 25° C. and 0.5 g of sodium benzoate was added and mixed well. […] Further cooling of this solution to about −4° C. caused precipitation.

[2] = test system: histone deacetylase (HDAC); conditions: cited from earlier work
[3] = high dosage of about 20 g a day; cited from earlier work
[4] = Solubility / achievable concentration of sodium 4-phenylbutyrate in water; assay type: physicochemical; conditions: supersaturated solution in aqueous medium
Procedure: This art-reported solubility is believed to pertain to the maximum solubility of the monomeric form of sodium 4-phenylbutyrate in water. As described in more detail below, a process has been identified of preparing a highly concentrated solution of sodium 4-phenylbutyrate, having a concentration 500 mg/mL in water by dissolving 5 g of sodium 4-phenylbutyrate in about 3.5 mL water to yield a solution volume of about 10 mL. The temperature can be room temperature (25° C.) or an elevated temperature, preferably in the range of up to about 80° C. The solution can be made at a higher temperature and then cooled to room temperature without precipitating resulting.

For O=C([O-])CCCc1ccccc1.[Na+] [sodium 4-phenylbutyrate], the “freezing of the solution” value ([1]; 600 mg/mL solution at 0° C.) was “does not freeze”, the “temperature at which precipitation is observed on further cooling” value ([1]; about 500 mg/mL solution) was −40 °C and the “freezing or precipitation upon storage” value ([1]; about 500 mg/mL solution, 0° C. for two days) was “did not freeze or precipitate out”. The “inhibition of histone deacetylase (HDAC)” value [2] was “efficient inhibitor”, the tolerability [3] was “well tolerated” and the “maximum drug concentration achieved in the formulation” value [4] was “about 700 mg/mL”.
